Assay results taken from patent US20160375127A1, “Method of producing an inactivated lentivirus, especially HIV, vaccine, kit and method of use” (LABORATOIRE BIODIM, priority 2013, published 2016).
“Also recorded” adds a separate entry of the source.

Legend:
HIV-1 LAV [1] = experiment: Infectivity of virions from treated HeLa-LAV cells on MT4 cells, cytopathic assay CellTiter-Glo; type: cell-based; settings: virus stock diluted up to 2000 times
Description: (§1) In order to examine the infectivity of viruses produced in the presence of these various compounds, the supernatants were harvested, titrated for viral protein p24 release using the Alliance HIV-1 p24 Antigen ELISA (PerkinElmer, http://www.perkinelmer.com/) and titrated to measure the quantity of infectious particles per ml by infecting TZM-bl indicator cells (from the AIDS reagent program, NIH) expressing luciferase under a Tat-dependent promoter. Alternatively for titration of infectious particles, target cells for HIV-1 infection such as MT4 cells were used.
(§2) Usually 1/2000 dilution of the virus stock is used to infect MT4 target cells. Productive HIV-1 infection is determined after 5 days using the CellTiter-Glo® luminescent reagent (Promega, France) to quantify MT4 cell viability. Alternatively, productive infection can be estimated by quantitation of p24 antigen as described in paragraph 2 above.

HIV-1 Gag = experiment: Western blot of Gag maturation and CA p24 content in producer cell lysates and virions, anti-p24 antibody; type: cell-based; settings: HeLa-LAV cell lysates and defective virions
HIV-1 LAV [2] = experiment: p24 titration of virus harvested from treated HeLa-LAV producer cells; type: cell-based; settings: HeLa-LAV cells treated during virus production
Description: as §1
as §1, with “2—Production of Viral particles in the presence of compounds. […] In” for “In”, “are” for “were”, “harvested, stored at −80° C. and” for “harvested,”, “cells” for “cells (from the AIDS reagent program, NIH)”, “are used as described above in 1a.” for “were used.”

HIV-1 LAV [3] = experiment: Infectivity of virions from treated HeLa-LAV cells on TZM indicator cells, luciferase assay; type: cell-based
Description: as §1
as §1, with “2—Production of Viral particles in the presence of compounds. […] In” for “In”, “are” for “were”, “harvested, stored at −80° C. and” for “harvested,”, “cells” for “cells (from the AIDS reagent program, NIH)”, “are used as described above in 1a.” for “were used.”

HIV-1 integrase = target: T1, HIV-1 integrase (Human immunodeficiency virus type 1 group M subtype B, UniProt P12497); experiment: Size exclusion chromatography of recombinant HIV-1 integrase on Superdex 200 PC 3.2/30; type: biochemical; settings: untreated IN elutes as dimer, 64 KD MW; 8 μM IN with 20 μM compound
T1 construct: Superdex 200 16/600 PG column for IN full length; made in house
Experimental: Multimerization of HIV-1 Integrase upon treatment with inactivating compounds was performed using size exclusion chromatography on a Superdex 200 PC 3.2/30 column (GE Healthcare), as described in the method section. Aldolase (158,000 MW), Conalbumin (75,000 MW), Carbonic Anhydrase (29,000 MW), and Ribonuclease A (13,700 MW) were used as protein markers for calibration.
was performed on a Superdex 200 PC 3.2/30 column (GE Healthcare) using an AKTA chromatography system (GE Healthcare) at 0.04 mL/min at room temperature. 20 μL of sample was injected on the column previously equilibrated in Integrase buffer (50 mM HEPES pH 7.5 containing 1M NaCl, 7 mM CHAPS, 5 mM MgCl2, 10% glycerol). 1 μM Compound was added to the mobile phase in order to avoid integrase-inhibitor dissociation during the separation.

HIV-1 NL4-3 [4] = experiment: Infectivity of NL4-3 virus from treated transfected 293T cells on MT4 cells, CellTiter-Glo; type: cell-based; settings: 293T transfection, compound 48 hours, supernatant diluted 2000 times, MT4 viability
Experimental: FIG. 4: Infectivity of wt NL4-3 viruses harvested from 293T transfected cells after treatment with the indicated compounds and tested by infection of MT4 cells using the cytopathic assay CellTiter-Glo®.
2 hours after transfection indicated compounds were added during virus production for 48 hours at the indicated concentrations. […] Viruses released in cell supernatants were harvested and tested for virus production by p24 assay, and virus infectivity by infection of MT4 cells and cytophatic assay using CellTiter-Glo® (Promega) according manufacturer's instructions.
293T cells (2.2 10^6 cells) are transfected with plasmids harboring full length cloned HIV proviral DNA such as pNL4-3 or any other HIV proviral clone including autologous HIV molecular clones using DNA transfection reagent such as X-tremeGENE 9 reagent (Roche). Cells are washed 3 h later, trypsinized and diluted at 0.3 10^6 cells per ml. 5 10^5 cells in 1.6 ml fresh culture media are distributed into 6 wells plate and the volume is adjusted to 2 ml by adding 0.4 ml of media containing compounds and DMSO per well, or DMSO only as control. As reference compounds capable to fully inactivate HIV during virus production by producer cells, Protease inhibitors such as Indinavir or Saquinavir are used as additional controls. Final concentration for each compound, including reference protease inhibitor compounds, is kept equivalent to 5 times its EC50 concentration previously calculated into a multiple round assay as in (a) and DMSO is kept at 0.5% final concentration. Supernatants containing HIV virions are collected 48 h post-transfection and stored at −80° C. All Viral stocks are quantified for p24 antigen using the Alliance HIV-1 p24 Antigen ELISA (PerkinElmer, http://www.perkinelmer.com/) and titrated to measure the quantity of infectious particles per ml by infecting TZM-bl indicator cells.
as §2, with “above. Full inactivation of the virus stock by compounds is estimated by results obtained in the presence of compound compared on the one hand to DMSO alone which indicates the 100% infectious virus stock (0% inactivation), and on the other hand to Protease inhibitor treatment which indicates the 100% virus stock inactivation.” for “above.”

HIV-1 NL4-3 [5] = experiment: Check of inactivation: multiple-round infection assay of MT4 human cells during five days; type: cell-based; settings: virus produced with 1 μM compound
Description: (§3) To do so, HIV-1 NL4-3 virus was produced upon 293T cell transfection using Opti-Mem® reagent (Life Technologies) according manufacturer's instructions. […] Cell supernatants containing virus were ultracentrifuged through sucrose cushion. Virus pellets were resuspended in cell culture medium, aliquoted and titrated for CA p24 amount using anti-p24 antibody (Innotest HIV antigen/mAB Immunogenetics/Ingen Ghent, Belgium or Alliance® HIV-I p24 ELISA kit PerkinElmer).

HIV-1 NL4-3 [6] = experiment: Western blot of NL4-3 virus lysates with anti-p24, anti-RT and anti-IN antibodies; type: cell-based; settings: anti-IN, versus wt virus treated with DMSO
HIV-1 NL4-3 [7] = experiment: CA p24 titration of NL4-3 virus produced by 293T cells in the presence of compound; type: cell-based; settings: 1 μM compound in 0.5% DMSO, 48 hours; untreated virus 19.6 μg/ml
Experimental: The assay shown in FIG. 6 measures the concentration of whole virus particles (p24 ng/ml on the Y axis) captured on plates coated with various anti-HIV antibodies at three different concentrations as indicated in the X axis. […] As indicated, two different dilutions of each of these virus preparations were incubated in the antibody-coated plates with the indicated antibodies, for 1 hour. Unbound virions were removed by washing. Virions captured by the indicated antibodies were lysed and quantitated by p24 assay by ELISA (Innogenetics/Ingen, Ghent Belgium). The anti-HIV antibodies used were a neutralizing polyclonal IgG F6 Gri/Ii, an irrelevant IgG F6 Neg (negative control), two monoclonal anti-HIV Env antibodies, 2G12 (neutralizing) and 4B3 (non-neutralizing), and an irrelevant monoclonal antibody (Synagis) as negative control.
as §3

| Compound | infectivity / cytopathic effect of viruses produced in the presence of compound (HIV-1 LAV [1]) | perturbation of Gag maturation and CA p24 content (HIV-1 Gag) | amount of p24 produced (HIV-1 LAV [2]; versus DMSO) | infectivity of viruses produced in the presence of compound (HIV-1 LAV [3]) | inactivation of NL4-3 virus produced in the presence of compound (HIV-1 NL4-3 [4]) | further results |
| --- | --- | --- | --- | --- | --- | --- |
| Cc1nc2cc(-c3cccnc3)ccc2c(-c2ccc3c(c2)CCCO3)c1C(OC(C)(C)C)C(=O)O (stereo not drawn) [MUT145212] | totally impaired for such cytopathic effect | could not detect any perturbation of Gag maturation and CA p24 content | comparable to that in the presence of DMSO | non-infectious | – | MW at which HIV-1 integrase is eluted (IN tetramer) (HIV-1 integrase): 130 KD MW |
| Cc1nc2c(-c3cccc(C(N)=O)c3)cccc2c(-c2ccc3c(c2)CCCO3)c1C(OC(C)(C)C)C(=O)O (stereo not drawn) [MUT145227] | totally impaired for such cytopathic effect | could not detect any perturbation of Gag maturation and CA p24 content | comparable to that in the presence of DMSO | non-infectious | – | – |
| Cc1nc2cc(C(N)=O)ccc2c(-c2ccc3c(c2)CCCO3)c1C(OC(C)(C)C)C(=O)O (stereo not drawn) [MUT145240] | – | – | – | – | – | MW at which HIV-1 integrase is eluted (IN tetramer) (HIV-1 integrase): 130 KD MW |
| Cc1nc2c(c(-c3ccc4c(c3)CCCO4)c1C(OC(C)(C)C)C(=O)O)CCCC2 (stereo not drawn) [MUT145509] | totally impaired for such cytopathic effect | could not detect any perturbation of Gag maturation and CA p24 content | comparable to that in the presence of DMSO | non-infectious | inactivated | – |
| Cc1sc(-c2ccncc2)c(C2=CCC(C)(C)CC2)c1[C@H](OC(C)(C)C)C(=O)O [MUT148237] | – | – | – | – | inactivated | excess of inactivated virus over untreated virus needed to infect 100,000 cells (HIV-1 NL4-3 [5]): more than 10,000 times; extent of virus inactivation (HIV-1 NL4-3 [5]): > 99.99%; amount of p24 of virus supernatant needed for infection of 50% of MT4 cells (HIV-1 NL4-3 [5]; untreated virus 0.11 pg): 5,139 pg; protein content and maturation profile of treated virus (HIV-1 NL4-3 [6]): protein content and maturation profile identical to wt virus; also recorded: exactly the same profile, with normal protein content and protein maturation than fully infectious virus; CA p24 titer of virus inactivated during production (HIV-1 NL4-3 [7]): 17.6 µg/mL |
| Cc1nnc(C(=O)NC(C)(C)c2nc(C(=O)NCc3ccc(F)cc3)c(O)c(=O)n2C)o1 [Raltegravir, reference compound] | fully infectious | – | – | comparable to viruses produced in the presence of DMSO | no effect | – |
| CC(C)(C)NC(=O)[C@@H]1C[C@@H]2CCCC[C@@H]2CN1C[C@@H](O)[C@H](Cc1ccccc1)NC(=O)[C@H](CC(N)=O)NC(=O)c1ccc2ccccc2n1 [Saquinavir, reference compound] | totally impaired for such cytopathic effect | – | – | non infectious | inactivated | protein content and maturation profile of treated virus (HIV-1 NL4-3 [6]): strong defect in maturation; protein content and maturation profile of treated virus (HIV-1 NL4-3 [6]; listed as saquinavir): strong defect in maturation and absence of RT and IN mature proteins; amount of p24 produced (HIV-1 LAV [2]): 30% |
